Measured values: PubChem BioAssay AID248 (DTP/NCI, 2004)
Several values for one entry are separate records, joined by “and”; a condition that tells them apart may be missing. Identical values can stand only once. Toxic doses and inconclusive results are not listed. Rule as the data show it: active = T/C of 150% or more; inactive = T/C below 125%.

Test system: L1210 leukemia ip in BDF1 mice, survival T/C
Assay: NCI In Vivo Anticancer Drug Screen. Data for tumor model L1210 Leukemia (intraperitoneal) in B6D2F1 (BDF1) mice
Conditions: endpoint: mean survival time, higher = longer survival
How it was run: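 Transplanted-tumor mice were given test agent; controls received vehicle only. Survival readings from the two groups were divided (treated over control).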

[1] = dose: 100.0 mg/kg/injection, schedule: Q01DX009 (ip), vehicle: Klucel (hydroxypropylcellulose) (HPC)
[2] = dose: 100.0 mg/kg/injection, schedule: Q04DX003 (ip), vehicle: Klucel (hydroxypropylcellulose) (HPC)
[3] = dose: 200.0 mg/kg/injection, schedule: Q01DX009 (ip), vehicle: Klucel (hydroxypropylcellulose) (HPC)
[4] = dose: 200.0 mg/kg/injection, schedule: Q04DX003 (ip), vehicle: Klucel (hydroxypropylcellulose) (HPC)
[5] = dose: 400.0 mg/kg/injection, schedule: Q01DX009 (ip), vehicle: Klucel (hydroxypropylcellulose) (HPC)
[6] = dose: 400.0 mg/kg/injection, schedule: Q04DX003 (ip), vehicle: Klucel (hydroxypropylcellulose) (HPC)
[7] = dose: 50.0 mg/kg/injection, schedule: Q04DX003 (ip), vehicle: Klucel (hydroxypropylcellulose) (HPC)
[8] = dose: 50.0 mg/kg/injection, schedule: Q01DX001 (ip), vehicle: carboxymethylcellulose (CMC)
[9] = dose: 200.0 mg/kg/injection, schedule: Q01DX001 (ip), vehicle: carboxymethylcellulose (CMC)
[10] = dose: 400.0 mg/kg/injection, schedule: Q01DX001 (ip), vehicle: carboxymethylcellulose (CMC)
[11] = dose: 100.0 mg/kg/injection, schedule: Q04DX002 (ip), vehicle: saline with Tween-80
[12] = dose: 200.0 mg/kg/injection, schedule: Q04DX002 (ip), vehicle: saline with Tween-80
[13] = dose: 400.0 mg/kg/injection, schedule: Q04DX002 (ip), vehicle: saline with Tween-80
[14] = dose: 100.0 mg/kg/injection, schedule: Q04DX002 (ip), vehicle: Klucel (hydroxypropylcellulose) (HPC)
[15] = dose: 200.0 mg/kg/injection, schedule: Q04DX002 (ip), vehicle: Klucel (hydroxypropylcellulose) (HPC)
[16] = dose: 400.0 mg/kg/injection, schedule: Q04DX002 (ip), vehicle: Klucel (hydroxypropylcellulose) (HPC)
[17] = dose: 100.0 mg/kg/injection, schedule: Q01DX001 (ip), vehicle: saline
[18] = dose: 400.0 mg/kg/injection, schedule: Q01DX001 (ip), vehicle: saline
[19] = dose: 100.0 mg/kg/injection, schedule: Q04DX003 (ip), vehicle: saline
[20] = dose: 200.0 mg/kg/injection, schedule: Q04DX003 (ip), vehicle: saline
[21] = dose: 400.0 mg/kg/injection, schedule: Q04DX003 (ip), vehicle: saline

Measured: T/C

CCOC(=O)C(=Cc1cccc2ccccc12)C(=O)OCC
inactive: [1] 98 % of control | [2] 101 % of control | [3] 105 % of control | [4] 98 % of control | [5] 93 % of control | [6] 92 % of control

CC1(C)N=C(N)N=C(N)N1c1cc(Cl)cc(CCCCc2ccc(S(=O)(=O)F)cc2)c1
inactive: dose: 25.0 mg/kg/injection, schedule: Q04DX003 (ip), vehicle: Klucel (hydroxypropylcellulose) (HPC) 109 % of control | [7] 112 % of control | [2] 107 % of control and 118 % of control

O=C(C[n+]1ccccc1/C=N/Nc1ccccc1)c1ccccc1
inactive: dose: 75.0 mg/kg/injection, schedule: Q01DX001 (ip), vehicle: saline 95 % of control | dose: 150.0 mg/kg/injection, schedule: Q01DX001 (ip), vehicle: saline 95 % of control | dose: 300.0 mg/kg/injection, schedule: Q01DX001 (ip), vehicle: saline 97 % of control

CCOc1ccccc1/C=N/Nc1nnc(N/N=C/c2ccccc2OCC)c2ccccc12
inactive: [8] 91 % of control | dose: 100.0 mg/kg/injection, schedule: Q01DX001 (ip), vehicle: carboxymethylcellulose (CMC) 97 % of control | [9] 97 % of control | [10] 91 % of control

CCOc1cc(-c2ccc(OC)cc2)nc(N)n1
inactive: [11] 91 % of control | [12] 97 % of control | [13] 91 % of control

COCCN(N=O)C(=O)NC1CCCCC1
inactive: dose: 700.0 mg/kg/injection, schedule: Q01DX001 (ip), vehicle: carboxymethylcellulose (CMC) 124 % of control | dose: 800.0 mg/kg/injection, schedule: Q01DX001 (ip), vehicle: carboxymethylcellulose (CMC) 124 % of control | dose: 1000.0 mg/kg/injection, schedule: Q01DX001 (ip), vehicle: carboxymethylcellulose (CMC) 117 % of control

Nc1cc(C(=O)Nc2cccc(C3=NCCN3)c2)ccc1C(=O)Nc1cccc(C2=NCCN2)c1
inactive: dose: 7.5 mg/kg/injection, schedule: Q01DX Z (ip), vehicle: saline 113 % of control | dose: 10.0 mg/kg/injection, schedule: Q01DX Z (ip), vehicle: saline 110 % of control

NC(=O)COc1ncc(Cl)cc1Cl
inactive: [14] 96 % of control | [15] 101 % of control | [16] 104 % of control

COC1C(OC(C)=O)CC(=O)OC(C)C/C=C/C=C\C(O)C(C)CC(CC=O)C1OC1OC(C)C(OC2CC(C)(O)C(OC(=O)CC(C)C)C(C)O2)C(N(C)C)C1O (centres undefined)
inactive: [17] 96 % of control | [18] 90 % of control

c1cc2c(cc1CCCCCCCCCCc1ccc3c(c1)CCC3)CCC2
inactive: [17] 97 % of control | dose: 200.0 mg/kg/injection, schedule: Q01DX001 (ip), vehicle: saline 97 % of control | [18] 89 % of control

O=C1C=C(C23CC4CC(CC(C4)C2)C3)Nc2ccccc2N1
inactive: [14] 94 % of control | [15] 105 % of control | [16] 94 % of control

ClC12OOC(c3ccccc3)(O1)C(c1ccccc1)c1ccccc12 (centres undefined)
inactive: [2] 93 % of control | [4] 98 % of control | [6] 98 % of control

CCOC(=O)NCC(C)(CCN1CCOCC1)c1cccc2ccccc12 (centres undefined)
inactive: dose: 25.0 mg/kg/injection, schedule: Q04DX003 (ip), vehicle: saline with Tween-80 93 % of control | dose: 50.0 mg/kg/injection, schedule: Q04DX003 (ip), vehicle: saline with Tween-80 97 % of control | [1] 94 % of control | dose: 100.0 mg/kg/injection, schedule: Q04DX003 (ip), vehicle: saline with Tween-80 103 % of control

CC(=O)OC1CCC2(C)C(=CCC3C2CCC2(C)C3CC3C(c4ccccc4)=NN(c4ccccc4)C32C#N)C1 (centres undefined)
inactive: [14] 103 % of control | [15] 92 % of control | [16] 98 % of control

CCCC(=O)Nc1cccc2ccccc12
inactive: [14] 117 % of control | [15] 107 % of control

COc1ccc(-c2sc(/N=C/c3cccs3)c(C#N)c2C)cc1OC
inactive: [1] 94 % of control | [3] 95 % of control | [5] 97 % of control

CN(N=O)C(=O)NN(C)C(=O)N(C)N=O
inactive: [8] 114 % of control | [9] 121 % of control | dose: 300.0 mg/kg/injection, schedule: Q01DX001 (ip), vehicle: carboxymethylcellulose (CMC) 114 % of control | [10] 121 % of control

CC(=O)Oc1cc2c(cc1OC(C)=O)C(Br)CCCC2=O (centres undefined)
inactive: dose: 100.0 mg/kg/injection, schedule: Q01DX009 (ip), vehicle: other 96 % of control | dose: 100.0 mg/kg/injection, schedule: Q04DX003 (ip), vehicle: other 94 % of control | dose: 200.0 mg/kg/injection, schedule: Q01DX009 (ip), vehicle: other 93 % of control | dose: 200.0 mg/kg/injection, schedule: Q04DX003 (ip), vehicle: other 102 % of control | dose: 400.0 mg/kg/injection, schedule: Q01DX009 (ip), vehicle: other 104 % of control | dose: 400.0 mg/kg/injection, schedule: Q04DX003 (ip), vehicle: other 104 % of control

COC1C(O)C(O)OC(CO)C1O (centres undefined)
inactive: dose: 50.0 mg/kg/injection, schedule: Q04DX003 (ip), vehicle: saline 112 % of control | [19] 96 % of control | [20] 104 % of control | [21] 96 % of control | dose: 500.0 mg/kg/injection, schedule: Q01DX009 (ip), vehicle: saline 94 % of control | dose: 1000.0 mg/kg/injection, schedule: Q01DX009 (ip), vehicle: saline 104 % of control

O=S(=O)(/C=C/c1ccccc1)c1ccc(F)cc1
inactive: dose: 100.0 mg/kg/injection, schedule: Q01DX001 (ip), vehicle: acetone 97 % of control | dose: 100.0 mg/kg/injection, schedule: Q01DX009 (ip), vehicle: acetone 88 % of control | dose: 200.0 mg/kg/injection, schedule: Q01DX001 (ip), vehicle: acetone 95 % of control | dose: 400.0 mg/kg/injection, schedule: Q01DX001 (ip), vehicle: acetone 95 % of control

O=C1OC(/C=C/c2ccccc2)=NC/1=C\c1ccc2c(c1)OCO2
inactive: [11] 92 % of control | [12] 89 % of control | [13] 92 % of control

[Cl][Hg][Cl].c1cnccn1
inactive: dose: 1.0 mg/kg/injection, schedule: Q01DX009 (ip), vehicle: saline with Tween-80 105 % of control | dose: 2.0 mg/kg/injection, schedule: Q01DX009 (ip), vehicle: saline with Tween-80 93 % of control | dose: 4.0 mg/kg/injection, schedule: Q01DX009 (ip), vehicle: saline with Tween-80 105 % of control | dose: 8.0 mg/kg/injection, schedule: Q04DX003 (ip), vehicle: saline with Tween-80 88 % of control

CC1CC(NC(=O)N(CCCl)N=O)CC(C)(C)C1 (centres undefined)
inactive: dose: 8.0 mg/kg/injection, schedule: Q01DX001 (ip), vehicle: other 96 % of control | dose: 16.0 mg/kg/injection, schedule: Q01DX001 (ip), vehicle: other 94 % of control | dose: 31.0 mg/kg/injection, schedule: Q01DX001 (ip), vehicle: other 105 % of control | dose: 62.0 mg/kg/injection, schedule: Q01DX001 (ip), vehicle: other 120 % of control
active: dose: 250.0 mg/kg/injection, schedule: Q01DX001 (ip), vehicle: other 157 % of control | dose: 375.0 mg/kg/injection, schedule: Q01DX001 (ip), vehicle: other 292 % of control | dose: 500.0 mg/kg/injection, schedule: Q01DX001 (ip), vehicle: other 308 % of control | dose: 750.0 mg/kg/injection, schedule: Q01DX001 (ip), vehicle: other 333 % of control

[N-]=[N+]=C1C(C(=O)c2ccccc2)=NN=C1c1ccccc1
inactive: [7] 97 % of control | [2] 104 % of control | [4] 108 % of control

c1ccc2c3c(ccc2c1)Sc1ccc2ccccc2c1N3
inactive: dose: 100.0 mg/kg/injection, schedule: Q01DX009 (ip), vehicle: saline 102 % of control | [19] 97 % of control | dose: 200.0 mg/kg/injection, schedule: Q01DX009 (ip), vehicle: saline 98 % of control | [20] 111 % of control | dose: 400.0 mg/kg/injection, schedule: Q01DX009 (ip), vehicle: saline 93 % of control | [21] 95 % of control
